# Measured values taken from ChEMBL document CHEMBL1138083, “Antidyslipidemic activity of furano-flavonoids isolated from Indigofera tinctoria” (2006).
# Calls of active or inactive are those of the source. No cut-off for these calls is given here.
# Legend:
# Format in all cases: functional, Mesocricetus auratus
# Syrian golden hamster [1] = assay: Decrease in total cholesterol level in hamster at 50 mg/kg, po; set-up: scale not given: the % may be the effect or the level left
# Syrian golden hamster [2] = assay: Decrease in free fatty acid in hamster at 50 mg/kg, po; set-up: scale not given: the % may be the effect or the level left
# Syrian golden hamster [3] = assay: Increase in HDL cholesterol to total cholesterol level in hamster at 50 mg/kg, po
# Syrian golden hamster [4] = assay: Decrease in plasma triglyceride level in hamster at 50 mg/kg, po; set-up: scale not given: the % may be the effect or the level left
# Syrian golden hamster [5] = assay: Decrease in glycerol level in hamster at 50 mg/kg, po; set-up: scale not given: the % may be the effect or the level left
# Syrian golden hamster [6] = assay: Increase in HDL cholesterol level in hamster at 50 mg/kg, po
# Syrian golden hamster [7] = assay: Increase in free fatty acid in hamster at 50 mg/kg, po
SMILES,Activity (Syrian golden hamster [1]) [%],Activity (Syrian golden hamster [2]) [%],Activity (Syrian golden hamster [3]) [%],Activity (Syrian golden hamster [4]) [%],Activity (Syrian golden hamster [5]) [%],Activity (Syrian golden hamster [6]) [%],Activity (Syrian golden hamster [7]) [%],Activity (Syrian golden hamster [1]; Mesocricetus auratus)
CC(=O)O[C@@H]1[C@@H]2c3c(ccc4c(=O)cc(-c5ccccc5)oc34)O[C@@H]2OC1(C)C,19,25,36,60,13,8,,
CC(=O)OC1C(C)(C)OC(=O)C12COc1ccc3c(=O)cc(-c4ccccc4)oc3c12 (stereo not drawn),,,26,41,6,28,7,inactive
CC(=O)O[C@H]1[C@@H]2c3c(ccc4c(=O)cc(-c5ccccc5)oc34)O[C@@H]2OC1(C)C,19,25,36,60,13,8,,
